{"source": "paper PMC10930872", "about": "“Preparation, Structural Identification, and Screening of Egg-Derived Peptides with Facilitating Alcohol Metabolism Activity” (Foods, 2024)", "origin": "cited, not measured here", "key": {"hepatic ADH": {"tested_on": "hepatic ADH", "settings": "ref [42],[43]", "text": "This has to do with the fact that eggs contain all EAAs. […] Ala is involved in hepatic gluconeogenesis, which oxidizes NADH + H^+ to NAD^+, thereby maintaining cytoplasmic NAD^+ concentrations and promoting alcohol metabolism. […] It is reported that HAA (Tyr, Trp, Gl ..."}, "[1]": {"target": "T1, alcohol dehydrogenase (ADH) (Saccharomyces cerevisiae, UniProt P00330)", "T1 sequence (P00330 1-348)": "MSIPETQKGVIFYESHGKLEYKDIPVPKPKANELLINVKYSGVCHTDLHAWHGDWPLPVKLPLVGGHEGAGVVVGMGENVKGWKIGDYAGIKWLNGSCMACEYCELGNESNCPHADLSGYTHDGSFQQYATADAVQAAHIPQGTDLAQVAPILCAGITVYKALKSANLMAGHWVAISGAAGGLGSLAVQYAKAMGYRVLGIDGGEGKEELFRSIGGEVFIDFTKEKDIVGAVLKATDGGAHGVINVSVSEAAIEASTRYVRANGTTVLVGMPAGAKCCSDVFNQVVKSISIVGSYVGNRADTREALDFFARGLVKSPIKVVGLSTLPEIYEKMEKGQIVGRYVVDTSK", "settings": "pentapeptide screened by Zan et al., 2023; ref [59]; read-out: EC50 of ADH activation", "text": "GSH, a tripeptide composed of Glu, Cys, and Gly, is widely found in normal human cells, with the highest concentration in the liver. It plays an important role in scavenging free radicals, inhibiting inflammatory factors, relieving hangovers, and protecting the liver."}, "ethanol dehydrogenase": {"tested_on": "ethanol dehydrogenase", "parameters": "method as in doi:10.1016/j.lwt.2022.113376", "settings": "ref [36]"}}, "data": [{"compound": "CC(C)C[C@H](N)C(=O)O", "note": "[Leu, L-leucine]", "values": [{"measurement": "Hepatic ADH activity", "setting": "hepatic ADH", "value": "significantly increase hepatic ADH activity"}]}, {"compound": "ILPHF [pentapeptide screened by Zan et al., 2023]", "values": [{"measurement": "EC50", "setting": "[1]", "value": 1600, "unit": "nM"}]}, {"compound": "Lys-Pro-Cys [KPC, chicken-derived tripeptide]", "values": [{"measurement": "Stability of ethanol dehydrogenase", "setting": "ethanol dehydrogenase", "value": "enhanced the stability of ethanol dehydrogenase"}]}]}
